Data from patent US20260069558A1, “RXFP1 MODULATORS FOR TREATING RESISTANT HYPERTENSION OR HEART FAILURE WITH PULMONARY HYPERTENSION” (ASTRAZENECA AB, priority 2022, published 2026).
In brackets after ≈: the same amount, converted by molar mass.

How the values were obtained:
Solubility (Test F) = type: physicochemical; conditions: arithmetic mean
Description: The assay was conducted according to the Solubility Assay described in pages 164-167 of Wemevik, J. et al., “A Fully Integrated Assay Panel for Early Drug Metabolism and Pharmacokinetics Profiling”, Assay and Drug Development Technologies, 2020, 18(4), 157-179. Where the assay was run multiple times for the same compound, the arithmetic mean is reported.

[1] = Human Plasma Protein Binding (Test B); type: in vitro ADME; conditions: fraction unbound (fu), arithmetic mean
Description: Human Plasma Protein Binding (Test B)
The assay was conducted according to the Human Plasma Protein Binding Assay described in pages 167-170 of Wemevik, J. et al., “A Fully Integrated Assay Panel for Early Drug Metabolism and Pharmacokinetics Profiling”, Assay and Drug Development Technologies, 2020, 18(4), 157-179. Data are reported in Table 1 as fraction unbound (fu) (% free). Where the assay was run multiple times for the same compound, the arithmetic mean is reported.

[2] = Rat Hepatocyte Stability (Test E); type: in vitro ADME; conditions: rat hepatocytes; geometric mean
Description: Rat Hepatocyte Stability (Test E)
The assay was conducted according to the Rat Hepatocyte Stability Assay described in pages 170-174 of Wernevik, J. et al., “A Fully Integrated Assay Panel for Early Drug Metabolism and Pharmacokinetics Profiling”, Assay and Drug Development Technologies, 2020, 18(4), 157-179. Data are reported in Table 1 as mean Clint (μl/min/10^6 cells). Where the assay was run multiple times for the same compound, the geometric mean is reported.

[3] = Human Liver Microsomal Stability (Test C); type: in vitro ADME; conditions: human liver microsomes; arithmetic mean
Description: Human Liver Microsomal Stability (Test C)
The assay was conducted according to the Human Liver Microsome Stability Assay described in pages 170-174 of Wemevik, J. et al., “A Fully Integrated Assay Panel for Early Drug Metabolism and Pharmacokinetics Profiling”, Assay and Drug Development Technologies, 2020, 18(4), 157-179. Data are reported in Table 1 as CLint (μl/min/mg protein).
Where the assay was run multiple times for the same compound, the arithmetic mean is reported.

[4] = Human Hepatocyte Stability (Test D); type: in vitro ADME; conditions: cryopreserved pooled human hepatocytes (LiverPool 10-Donor), geometric mean
Description: Human Hepatocyte Stability (Test D)
Prepare 10 mM stock solutions of compound and control compounds in appropriate solvent (DMSO). Place incubation medium (L-15 Medium) in a 37° C. water bath, and allow warming for at least 15 minutes prior to use. • 2. […] Remove a vial of cryopreserved (less than −150° C.) human hepatocytes (LiverPool™ 10-Donor Human hepatocytes obtained from Bioreclamation IVT (Product No. S01205)) from storage, ensuring that vials remain at cryogenic temperatures until thawing process ensues. As quickly as possible, thaw the cells by placing the vial in a 37° C. water bath and gently shaking the vials. Vials should remain in water bath until all ice crystals have dissolved and are no longer visible. After thawing is complete, spray vial with 70% ethanol, transfer the vial to a bio-safety cabinet. • 5. Open the vial and pour the contents into the 50 mL conical tube containing thawing medium. Place the 50 mL conical tube into a centrifuge and spin at 100 g for 10 minutes (room temperature). […] Using Cellometer® Vision, count cells and determine the viable cell density. […]
All calculations were carried out using Microsoft Excel. Peak areas were determined from extracted ion chromatograms. In vitro intrinsic clearance (in vitro Clint, in μL/min/10^6 cells) of parent compound was determined by regression analysis of the Ln percent parent disappearance vs. time curve.

human RXFP1 = target: T1, human RXFP1 (Homo sapiens, UniProt Q9HBX9); assay: RXFP1 Hu cAMP (Test A), HTRF cAMP production; type: cell-based; conditions: for Test A Sinf: fitted efficacy at infinite concentration, normalized to response of 1 nM relaxin, arithmetic mean
T1 construct: expressed in transfected cells; host or cells: Jump-In T-REx CHO-K1 cells (ThermoFisher)
T1 sequence (Q9HBX9 1-757): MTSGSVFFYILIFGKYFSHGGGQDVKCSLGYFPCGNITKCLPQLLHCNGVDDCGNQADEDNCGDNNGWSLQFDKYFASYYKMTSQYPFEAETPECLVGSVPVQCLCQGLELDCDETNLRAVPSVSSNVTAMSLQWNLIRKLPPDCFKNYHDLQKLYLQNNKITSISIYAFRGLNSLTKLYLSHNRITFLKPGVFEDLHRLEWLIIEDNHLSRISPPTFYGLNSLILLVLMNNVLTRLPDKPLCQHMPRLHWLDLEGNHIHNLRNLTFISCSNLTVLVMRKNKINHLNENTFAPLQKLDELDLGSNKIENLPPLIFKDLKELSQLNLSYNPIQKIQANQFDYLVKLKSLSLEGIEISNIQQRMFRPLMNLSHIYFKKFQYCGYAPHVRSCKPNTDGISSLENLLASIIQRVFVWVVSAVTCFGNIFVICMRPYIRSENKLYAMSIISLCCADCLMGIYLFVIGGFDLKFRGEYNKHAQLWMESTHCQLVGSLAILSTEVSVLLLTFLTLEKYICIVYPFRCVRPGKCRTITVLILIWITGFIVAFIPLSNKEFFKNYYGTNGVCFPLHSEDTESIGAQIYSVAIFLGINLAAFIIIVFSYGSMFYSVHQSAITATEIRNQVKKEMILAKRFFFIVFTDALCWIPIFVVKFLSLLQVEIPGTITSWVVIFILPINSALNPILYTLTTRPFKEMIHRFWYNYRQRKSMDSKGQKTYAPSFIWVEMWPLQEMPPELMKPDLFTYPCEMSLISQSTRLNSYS
Excerpt: To screen for modulators of hRXFP1, an assay identifying compounds that stimulate cAMP production via the Gs-coupled hRXFP1 receptor was used. cAMP HiRange HTRF kit (available from CisBio Bioassays, France; catalogue number 62AM6PEJ) was employed in large according to manufacturer's recommendations for detection of cAMP. The HTRF method is a competitive immunoassay between native cAMP produced by cells and cAMP labeled with the dye d2. The tracer binding is visualized with a cryptate labeled antibody for cAMP and the signal is thus inversely proportional to the amount of produced cAMP.
Cells: Jump-In™ T-REx™ CHO-K1 Cells (ThermoFisher) stably transfected with human RXFP1 was employed. Cells were induced to express human RXFP1 by treatment with 10 ng/ml doxycycline for 24 h. Cells were then cryopreserved for long term storage.
HTRF detection reagents: cAMP-d2 and anti-cAMP cryptate reconstituted according to CisBio instructions were diluted 1:40 in lysis buffer provided with the HTRF-kit.
Using a cAMP standard curve, HTRF data was converted to amount cAMP produced in the samples which was subsequentially used for calculation of concentration responses.
Concentration response data were fitted with a four parameter logistic fit, the Hill equation.
Where the assay was run multiple times for the same compound, the geometric mean is reported.
Sinf is the fitted activity level, efficacy, at infinite concentration of test compound. To facilitate comparison of efficacy data, efficacy was normalized to % effect of the response stimulated by a saturating concentration of relaxin (1 nM). Where the assay was run multiple times for the same compound, the arithmetic mean is reported.

COc1cc(C#N)c(O[C@H]2CC[C@@](C)(C(=O)O)CC2)cc1C(=O)N[C@@H]1[C@H]2CC[C@H](C2)[C@@H]1C(=O)NCC(C)(C)C [Example 5, (1S,4s)-4-(2-cyano-4-methoxy-5-(((1S,2R,3S,4R)-3-(neopentylcarbamoyl)bicyclo[2.2.1]heptan-2-yl)carbamoyl)phenoxy)-1-methylcyclohexane-1-carboxylic acid]
solubility (Solubility (Test F)): 910 µM (≈ 491 µg/mL) | Test B Human Plasma Protein Binding (% free) [1]: 12 % free | hepatocyte CLint [2]: 15 µL/min/1e6 cells | microsomal CLint [3]: < 3 µL/min/mg | hepatocyte CLint at 1 µM [4]: < 1.2 µL/min/1e6 cells

COc1cc(C#N)c(O[C@H]2CC[C@@](C)(C(=O)O)CC2)cc1C(=O)N[C@@H]1[C@H]2CC[C@H](C2)[C@@H]1C(=O)NCC1CC1 [Example 3, (1S,4s)-4-(2-Cyano-5-(((1S,2R,3S,4R)-3-((cyclopropylmethyl)carbamoyl)bicyclo[2.2.1]heptan-2-yl)carbamoyl)-4-methoxyphenoxy)-1-methylcyclohexane-1-carboxylic acid]
Test A Sinf (human RXFP1): 97%

COc1cc(F)c(O[C@H]2CC[C@@](C)(C(=O)O)CC2)cc1C(=O)N[C@@H]1[C@H]2CC[C@H](C2)[C@@H]1C(=O)NCC1CCC1 [Example 2, (1S,4s)-4-(5-(((1S,2R,3S,4R)-3-((cyclobutylmethyl)carbamoyl)bicyclo[2.2.1]heptan-2-yl)carbamoyl)-2-fluoro-4-methoxyphenoxy)-1-methylcyclohexane-1-carboxylic acid]
EC50 (human RXFP1; cAMP production, Jump-In T-REx CHO-K1 cells stably transfected with human RXFP1, geometric mean): 0.23 µM | Test A Sinf (human RXFP1): 101%
